IC50 data for 32 compounds are collected here from ChEMBL document CHEMBL2434931, “Synthesis and antitumor activities of novel thiourea α-aminophosphonates from dehydroabietic acid” (Eur J Med Chem, 2013).

Assay type in all cases: functional, cell-based
Test [1] concerns NCI-H460. Kind of test: Cytotoxicity against human NCI-H460 cells after 3 days by MTT assay. Particulars: NCI-H460, 72 h.
The subject of test [2] is A549. Kind of test: Cytotoxicity against human A549 cells after 3 days by MTT assay. The following applies: A549, 72 h.
Test [3] relates to SK-OV-3. Kind of test: Cytotoxicity against human SKOV3 cells after 3 days by MTT assay. The following applies: SK-OV-3, 72 h.
Test [4] deals with HepG2. Kind of test: Cytotoxicity against human HepG2 cells after 3 days by MTT assay. Particulars: HepG2, 72 h.

Regarding `CCOP(=O)(OCC)C(NC(=S)NC(=O)[C@]1(C)CCC[C@]2(C)c3ccc(C(C)C)cc3C(=O)C[C@@H]12)c1cccc(F)c1` (stereo partly drawn), the IC50 is 39.8 µM in test [1], 33 µM in test [2], over 50 µM in test [3] and 37.1 µM in test [4].

As to `CCOP(=O)(OCC)C(NC(=S)NC(=O)[C@]1(C)CCC[C@]2(C)c3ccc(C(C)C)cc3/C(=N\O)C[C@@H]12)c1ccc(C)cc1` (stereo partly drawn), the IC50 in test [1] turned out to be 22.4 µM; in test [2], 17.9 µM; in test [3], 8.95 µM; in test [4], 10.9 µM.

On to `CCOP(=O)(OCC)C(NC(=S)NC(=O)[C@]1(C)CCC[C@]2(C)c3ccc(C(C)C)cc3C(=O)C[C@@H]12)c1ccccc1Cl` (stereo partly drawn), for which the IC50 was found to be 36.1 µM in test [1], 22.5 µM in test [2], 27.9 µM in test [3] and 39.9 µM in test [4].

As for `CCOP(=O)(OCC)C(NC(=S)NC(=O)[C@]1(C)CCC[C@]2(C)c3ccc(C(C)C)cc3C(=O)C[C@@H]12)c1cccc(Cl)c1` (stereo partly drawn), the IC50 in test [1] was over 50 µM; in test [2], 44.1 µM; in test [3], over 50 µM; in test [4], over 50 µM.

Regarding `CCOP(=O)(OCC)C(NC(=S)NC(=O)[C@]1(C)CCC[C@]2(C)c3ccc(C(C)C)cc3/C(=N\O)C[C@@H]12)c1ccc(Cl)cc1` (stereo partly drawn), the IC50 in test [1] is 23.8 µM; in test [2] it was 9.66 µM; in test [3], 16.6 µM; in test [4] it was 21.4 µM.

`CCOP(=O)(OCC)C(NC(=S)NC(=O)[C@]1(C)CCC[C@]2(C)c3ccc(C(C)C)cc3C(=O)C[C@@H]12)c1ccccc1F` (stereo partly drawn): the IC50 in test [1] was 36.4 µM; in test [2] it was over 50 µM; in test [3] it was 45.1 µM; in test [4], 49.3 µM.

Consider `CCOP(=O)(OCC)C(NC(=S)NC(=O)[C@]1(C)CCC[C@]2(C)c3ccc(C(C)C)cc3/C(=N\O)C[C@@H]12)c1ccccc1Cl` (stereo partly drawn), for which the IC50 in test [1] is 29.1 µM; in test [2] it was 32.8 µM; in test [3] it was 40.2 µM; in test [4], over 50 µM.

For the compound `CCOP(=O)(OCC)C(NC(=S)NC(=O)[C@]1(C)CCC[C@]2(C)c3ccc(C(C)C)cc3C(=O)C[C@@H]12)c1ccc(C)cc1` (stereo partly drawn), the IC50 in test [1] is 24.8 µM; in test [2] it was 22.2 µM; in test [3] it was 11.8 µM; in test [4], 15.2 µM.

For `CC(C)c1ccc2c(c1)CC[C@H]1[C@](C)(C(=O)O)CCC[C@]21C` [DEHYDROABIETIC ACID], the IC50 was 84.5 µM in test [1], 79.5 µM in test [2], 84 µM in test [3] and 85 µM in test [4].

As for `CCOP(=O)(OCC)C(NC(=S)NC(=O)[C@]1(C)CCC[C@]2(C)c3ccc(C(C)C)cc3/C(=N\O)C[C@@H]12)c1cccc2ccccc12` (stereo partly drawn), the IC50 in test [1] worked out at 37.1 µM; in test [2] it was 28 µM; in test [3] it was 40.1 µM; in test [4], 27.9 µM.

`CCOP(=O)(OCC)C(NC(=S)NC(=O)[C@]1(C)CCC[C@]2(C)c3ccc(C(C)C)cc3C(=O)C[C@@H]12)c1ccc(Cl)cc1` (stereo partly drawn): the IC50 in test [1] turned out to be 41.2 µM; in test [2], 30.3 µM; in test [3], 31.4 µM; in test [4], 39.5 µM.

As for `CCOP(=O)(OCC)C(NC(=S)NC(=O)[C@]1(C)CCC[C@]2(C)c3ccc(C(C)C)cc3/C(=N\O)C[C@@H]12)c1ccc(Br)cc1` (stereo partly drawn), the IC50 in test [1] came out at 22.6 µM; in test [2] it was 19 µM; in test [3] it was 12.7 µM; in test [4], 26.9 µM.

As for `CCOP(=O)(OCC)C(NC(=S)NC(=O)[C@]1(C)CCC[C@]2(C)c3ccc(C(C)C)cc3/C(=N\O)C[C@@H]12)c1ccc2ccccc2c1` (stereo partly drawn), the IC50 in test [1] was 26.8 µM; in test [2] it was over 50 µM; in test [3], 40.6 µM; in test [4] it was 20.9 µM.

As for `CCOP(=O)(OCC)C(NC(=S)NC(=O)[C@]1(C)CCC[C@]2(C)c3ccc(C(C)C)cc3/C(=N\O)C[C@@H]12)c1cccc(F)c1` (stereo partly drawn), the IC50 in test [1] turned out to be 13.3 µM; in test [2] it was 28.9 µM; in test [3], 25.2 µM; in test [4] it was 17.5 µM.

Turning to `CCOP(=O)(OCC)C(NC(=S)NC(=O)[C@]1(C)CCC[C@]2(C)c3ccc(C(C)C)cc3/C(=N\O)C[C@@H]12)c1cccc(Br)c1` (stereo partly drawn), the IC50 stood at 30.2 µM in test [1], 34.7 µM in test [2], 37.7 µM in test [3] and 42.8 µM in test [4].

For the compound `CCOP(=O)(OCC)C(NC(=S)NC(=O)[C@]1(C)CCC[C@]2(C)c3ccc(C(C)C)cc3C(=O)C[C@@H]12)c1ccccc1` (stereo partly drawn), the IC50 in test [1] was found to be 21.1 µM; in test [2] it was 21.6 µM; in test [3], 42.5 µM; in test [4] it was 46.8 µM.

For `CCOP(=O)(OCC)C(NC(=S)NC(=O)[C@]1(C)CCC[C@]2(C)c3ccc(C(C)C)cc3C(=O)C[C@@H]12)c1ccc(Br)cc1` (stereo partly drawn), the IC50 in test [1] is 27.9 µM; in test [2] it was 49.6 µM; in test [3], 36.9 µM; in test [4], over 50 µM.

As for `CCOP(=O)(OCC)C(NC(=S)NC(=O)[C@]1(C)CCC[C@]2(C)c3ccc(C(C)C)cc3/C(=N\O)C[C@@H]12)c1cccc(Cl)c1` (stereo partly drawn), the IC50 worked out at 28.4 µM in test [1], 19 µM in test [2], 12.3 µM in test [3] and 13.2 µM in test [4].

Consider `CCOP(=O)(OCC)C(NC(=S)NC(=O)[C@]1(C)CCC[C@]2(C)c3ccc(C(C)C)cc3C(=O)C[C@@H]12)c1cccc(Br)c1` (stereo partly drawn), for which the IC50 in test [1] is 41.5 µM; in test [2] it was 42.5 µM; in test [3] it was 49.1 µM; in test [4] it was over 50 µM.

In the case of `CCOP(=O)(OCC)C(NC(=S)NC(=O)[C@]1(C)CCC[C@]2(C)c3ccc(C(C)C)cc3C(=O)C[C@@H]12)c1cccc2ccccc12` (stereo partly drawn), the IC50 in test [1] is over 50 µM; in test [2] it was 32.6 µM; in test [3] it was 27.3 µM; in test [4], over 50 µM.

As to `CCOP(=O)(OCC)C(NC(=S)NC(=O)[C@]1(C)CCC[C@]2(C)c3ccc(C(C)C)cc3/C(=N\O)C[C@@H]12)c1cccc(C)c1` (stereo partly drawn), the IC50 in test [1] turned out to be 37.9 µM; in test [2], 12.9 µM; in test [3], 28.6 µM; in test [4], 12.5 µM.

Regarding `CCOP(=O)(OCC)C(NC(=S)NC(=O)[C@]1(C)CCC[C@]2(C)c3ccc(C(C)C)cc3/C(=N\O)C[C@@H]12)c1ccccc1OC` (stereo partly drawn), the IC50 stood at 18.6 µM in test [1], 27.1 µM in test [2], 17.9 µM in test [3] and 8.62 µM in test [4].

For `CCOP(=O)(OCC)C(NC(=S)NC(=O)[C@]1(C)CCC[C@]2(C)c3ccc(C(C)C)cc3/C(=N\O)C[C@@H]12)c1ccc(OC)cc1` (stereo partly drawn), the IC50 was found to be 38.5 µM in test [1], 23.6 µM in test [2], 30.8 µM in test [3] and 17 µM in test [4].

Turning to `CCOP(=O)(OCC)C(NC(=S)NC(=O)[C@]1(C)CCC[C@]2(C)c3ccc(C(C)C)cc3/C(=N\O)C[C@@H]12)c1ccccc1F` (stereo partly drawn), the IC50 in test [1] stood at 19.3 µM; in test [2] it was 9.16 µM; in test [3], 19.9 µM; in test [4] it was 9.73 µM.

On to `CCOP(=O)(OCC)C(NC(=S)NC(=O)[C@]1(C)CCC[C@]2(C)c3ccc(C(C)C)cc3/C(=N\O)C[C@@H]12)c1ccccc1` (stereo partly drawn), for which the IC50 in test [1] came to 36.7 µM; in test [2], 27 µM; in test [3] it was 22.1 µM; in test [4], 27.2 µM.

Consider `CCOP(=O)(OCC)C(NC(=S)NC(=O)[C@]1(C)CCC[C@]2(C)c3ccc(C(C)C)cc3C(=O)C[C@@H]12)c1ccccc1OC` (stereo partly drawn), for which the 50% inhibitory concentration (IC50) in test [1] is 29.5 µM; in test [2], 19.9 µM; in test [3], 23.6 µM; in test [4], over 50 µM.

On to `O=c1[nH]cc(F)c(=O)[nH]1` [FLUOROURACIL], for which the IC50 in test [1] was determined as 44 µM; in test [2] it was 34.3 µM; in test [3], 24.4 µM; in test [4], 30 µM.

With `CCOP(=O)(OCC)C(NC(=S)NC(=O)[C@]1(C)CCC[C@]2(C)c3ccc(C(C)C)cc3C(=O)C[C@@H]12)c1cccc(C)c1` (stereo partly drawn), the IC50 in test [1] was 42.7 µM; in test [2], 37.1 µM; in test [3], over 50 µM; in test [4], over 50 µM.

Regarding `CCOP(=O)(OCC)C(NC(=S)NC(=O)[C@]1(C)CCC[C@]2(C)c3ccc(C(C)C)cc3C(=O)C[C@@H]12)c1ccc(F)cc1` (stereo partly drawn), the IC50 in test [1] is 22.4 µM; in test [2], 17.4 µM; in test [3] it was 30.2 µM; in test [4] it was 45.4 µM.

Turning to `CCOP(=O)(OCC)C(NC(=S)NC(=O)[C@]1(C)CCC[C@]2(C)c3ccc(C(C)C)cc3C(=O)C[C@@H]12)c1cccc(OC)c1` (stereo partly drawn), the IC50 turned out to be 11.5 µM in test [1], 14.1 µM in test [2], 8.41 µM in test [3] and 15.8 µM in test [4].

Regarding `CCOP(=O)(OCC)C(NC(=S)NC(=O)[C@]1(C)CCC[C@]2(C)c3ccc(C(C)C)cc3C(=O)C[C@@H]12)c1ccc(OC)cc1` (stereo partly drawn), the IC50 is 24.5 µM in test [1], 26.1 µM in test [2], 49.9 µM in test [3] and over 50 µM in test [4].

Take `CCOP(=O)(OCC)C(NC(=S)NC(=O)[C@]1(C)CCC[C@]2(C)c3ccc(C(C)C)cc3C(=O)C[C@@H]12)c1ccc2ccccc2c1` (stereo partly drawn): the IC50 in test [1] amounted to 19.8 µM; in test [2] it was 23.2 µM; in test [3], 24.6 µM; in test [4], 25.2 µM.
